# Patent US20050042661A1, “Use of novel compounds to release nucleotides from living cells” (priority 2003, published 2005)
# Assays:
# [1] = tested on: whole blood diluted with physiological saline 200 times; assay: Extraction efficiency test of ATP, whole blood; assay type: cell-based; conditions: Whole blood diluted 200 times
# Procedure: (§1) The extraction efficiency of the release reagent based on a quaternary ethoxylated amine and an ethoxylated amine mixture was also tested against the boiling tris-EDTA buffer and the perchloric acid extraction methods. The samples consisted of whole blood diluted with physiological saline 200 times, a suspension of E. coli bacteria in concentration of one million cells per milliliter, and a suspension of green algae, Chlorella sp. […]
# (§2) Measurement of ATP by bioluminescence: 100 microliter aliquots of extracted sample solution were pipetted into transparent glass cuvettes and these were placed into the light-tight reaction chamber of a photon counter. […] The light emission was integrated for 10 seconds and the results read on the digital display as relative light units. The relative light units were converted to ATP by internal standardization whereby a known quantity of ATP standard was added into an aliquot of the extracted sample and measured as above. […] By subtracting the reading of the sample from that of the sample+added ATP standard a conversion factor for relative light units to ATP was calculated.
# [2] = tested on: E. coli bacteria; assay: Extraction efficiency test of ATP, E. coli suspension; assay type: cell-based; conditions: one million cells per milliliter
# Procedure: as §1, §2
smiles,measurement,setting,value
"[O-][Cl+3]([O-])([O-])O [Perchloric acid method, perchloric acid]",ATP extraction efficiency,[1],7%
same,ATP extraction efficiency,[2],3%
